Laboratory results as given in patent publication US5002886A, “Oxidoreductase and the preparation thereof” (British Gas PLC, priority 1986, dated 1991).

Tested on: oxidoreductase
Test: Michaelis constants (Dixon and Webb method, Lineweaver-Burke plots)
Format: biochemical, Microbacterium SP. (NCIB 12048)
Settings: two substrate enzyme; calculated from primary Lineweaver-Burke plots
Protocol: The Michaelis constants (K^m) for NAD^+ and 1,2-ethanediol were calculated using the method described by Dixon, M and Webb, E.C. ("Enzymes", Longman Group Limited, 1964 pp. 84-86) for two substrate enzymes, based on data from primary plots constructed by the Lineweaver-Burke technique.

SMILES | Km
OCCO [Monoethylene Glycol, 1,2-ethanediol] | ~480 µM
NC(=O)c1ccc[n+]([C@@H]2O[C@H](COP(=O)([O-])OP(=O)(O)OC[C@H]3O[C@@H](n4cnc5c(N)ncnc54)[C@H](O)[C@@H]3O)[C@@H](O)[C@H]2O)c1 [NAD^+, nicotinamide adenenine dinucleotide] | ~330 µM
